Measurements: PubChem BioAssay AID1259407 (Chemical Carcinogenesis Research Information System (CCRIS), 2018)
The source made the active and inactive calls. No rule for the calls is given here.

Test system: CCRIS mutagenicity, Ames/micronucleus/aberration tests
Assay: CCRIS mutagenicity studies
[1] = Test System: AMES SALMONELLA TYPHIMURIUM, Strain/Indicator: TA98, Metabolic Activation: NONE, Method: STANDARD PLATE
[2] = Test System: AMES SALMONELLA TYPHIMURIUM, Strain/Indicator: TA98, Metabolic Activation: RAT, LIVER, S-9, AROCLOR 1254, Method: STANDARD PLATE
[3] = Test System: AMES SALMONELLA TYPHIMURIUM, Strain/Indicator: TA100, Metabolic Activation: NONE, Method: STANDARD PLATE
[4] = Test System: AMES SALMONELLA TYPHIMURIUM, Strain/Indicator: TA100, Metabolic Activation: RAT, LIVER, S-9, AROCLOR 1254, Method: STANDARD PLATE
[5] = Test System: AMES SALMONELLA TYPHIMURIUM, Strain/Indicator: TA1537, Metabolic Activation: NONE, Method: PREINCUBATION
[6] = Test System: MOUSE LYMPHOMA, Strain/Indicator: L5178Y (TK+/TK-), Metabolic Activation: NONE, Method: SUSPENSION/PLATE
[7] = Test System: MOUSE LYMPHOMA, Strain/Indicator: L5178Y (TK+/TK-), Metabolic Activation: RAT, LIVER, S-9, AROCLOR 1254, Method: SUSPENSION/PLATE
[8] = Test System: AMES SALMONELLA TYPHIMURIUM, Strain/Indicator: TA100, Metabolic Activation: NONE, Method: PREINCUBATION
[9] = Test System: AMES SALMONELLA TYPHIMURIUM, Strain/Indicator: TA1535, Metabolic Activation: NONE, Method: PREINCUBATION
[10] = Test System: E. COLI, Strain/Indicator: WP2 UVRA, Metabolic Activation: NONE, Method: PREINCUBATION

**Q.** For OC/C=C/c1ccccc1, which mutagenic call (Test System: AMES SALMONELLA TYPHIMURIUM, Strain/Indicator: TA98, Metabolic Activation: HAMSTER, LIVER, S-9, AROCLOR 1254 (2.5-20%), Method: PREINCUBATION) is on record?
**A.** inactive; negative

**Q.** And the mutagenic call (Test System: AMES SALMONELLA TYPHIMURIUM, Strain/Indicator: TA98, Metabolic Activation: HAMSTER, LIVER, S-9, AROCLOR 1254, Method: STANDARD PLATE)?
**A.** inactive; negative

**Q.** And the mutagenic call [1]?
**A.** inactive; negative

**Q.** What about the mutagenic call [2] of the same molecule?
**A.** inactive; negative

**Q.** What about the mutagenic call (Test System: AMES SALMONELLA TYPHIMURIUM, Strain/Indicator: TA100, Metabolic Activation: HAMSTER, LIVER, S-9, AROCLOR 1254 (2.5-20%), Method: PREINCUBATION) of the same molecule?
**A.** inactive; negative

**Q.** And the mutagenic call (Test System: AMES SALMONELLA TYPHIMURIUM, Strain/Indicator: TA100, Metabolic Activation: HAMSTER, LIVER, S-9, AROCLOR 1254, Method: STANDARD PLATE)?
**A.** inactive; negative

**Q.** And the mutagenic call [3]?
**A.** inactive; negative

**Q.** And the mutagenic call [4]?
**A.** inactive; negative

**Q.** And the mutagenic call (Test System: AMES SALMONELLA TYPHIMURIUM, Strain/Indicator: TA102, Metabolic Activation: HAMSTER, LIVER, S-9, AROCLOR 1254, Method: PREINCUBATION)?
**A.** inactive; negative

**Q.** And the mutagenic call (Test System: AMES SALMONELLA TYPHIMURIUM, Strain/Indicator: TA102, Metabolic Activation: NONE, Method: PREINCUBATION)?
**A.** inactive; negative

**Q.** What about the mutagenic call (Test System: AMES SALMONELLA TYPHIMURIUM, Strain/Indicator: TA102, Metabolic Activation: RAT, LIVER, S-9, AROCLOR 1254, Method: PREINCUBATION) of the same molecule?
**A.** inactive; negative

**Q.** What about the mutagenic call (Test System: AMES SALMONELLA TYPHIMURIUM, Strain/Indicator: TA1535, Metabolic Activation: HAMSTER, LIVER, S-9, AROCLOR 1254, Method: STANDARD PLATE) of the same molecule?
**A.** inactive; negative

**Q.** What about the mutagenic call (Test System: AMES SALMONELLA TYPHIMURIUM, Strain/Indicator: TA1535, Metabolic Activation: NONE, Method: STANDARD PLATE) of the same molecule?
**A.** inactive; negative

**Q.** And the mutagenic call (Test System: AMES SALMONELLA TYPHIMURIUM, Strain/Indicator: TA1535, Metabolic Activation: RAT, LIVER, S-9, AROCLOR 1254, Method: STANDARD PLATE)?
**A.** inactive; negative

**Q.** What about the mutagenic call (Test System: AMES SALMONELLA TYPHIMURIUM, Strain/Indicator: TA1537, Metabolic Activation: HAMSTER, LIVER, S-9, AROCLOR 1254, Method: STANDARD PLATE) of the same molecule?
**A.** inactive; negative

**Q.** And the mutagenic call [5]?
**A.** inactive; negative

**Q.** What about the mutagenic call (Test System: AMES SALMONELLA TYPHIMURIUM, Strain/Indicator: TA1537, Metabolic Activation: NONE, Method: STANDARD PLATE) of the same molecule?
**A.** inactive; negative

**Q.** What about the mutagenic call (Test System: AMES SALMONELLA TYPHIMURIUM, Strain/Indicator: TA1537, Metabolic Activation: RAT, LIVER, S-9, AROCLOR 1254, Method: STANDARD PLATE) of the same molecule?
**A.** inactive; negative

**Q.** And the mutagenic call (Test System: AMES SALMONELLA TYPHIMURIUM, Strain/Indicator: TA1538, Metabolic Activation: HAMSTER, LIVER, S-9, AROCLOR 1254, Method: STANDARD PLATE)?
**A.** inactive; negative

**Q.** And the mutagenic call (Test System: AMES SALMONELLA TYPHIMURIUM, Strain/Indicator: TA1538, Metabolic Activation: NONE, Method: STANDARD PLATE)?
**A.** inactive; negative

**Q.** What about the mutagenic call (Test System: AMES SALMONELLA TYPHIMURIUM, Strain/Indicator: TA1538, Metabolic Activation: RAT, LIVER, S-9, AROCLOR 1254, Method: STANDARD PLATE) of the same molecule?
**A.** inactive; negative

**Q.** What about the mutagenic call [6] of the same molecule?
**A.** active; positive. reevaluation of results: inconclusive

**Q.** What about the mutagenic call [7] of the same molecule?
**A.** active; positive. reevaluation of results: positive

**Q.** And the mutagenic call (Test System: Mouse lymphoma, Strain/Indicator: L5178Y (tk+/tk-), Metabolic Activation: None, Method: Suspension/plate)?
**A.** inactive; negative

**Q.** What about the mutagenic call (Test System: Mouse lymphoma, Strain/Indicator: L5178Y (tk+/tk-), Metabolic Activation: Rat, Liver, S-9, Aroclor 1254, Method: Suspension/plate) of the same molecule?
**A.** inactive; negative

**Q.** Which mutagenic call [1] does the source give for Oc1ccc2ccc3c4c(ccc3c2c1)[C@@H](O)[C@H](O)C=C4 here?
**A.** inactive; negative

**Q.** And the mutagenic call [2]?
**A.** active; positive

**Q.** And the mutagenic call [3]?
**A.** inactive; negative

**Q.** What about the mutagenic call [4] of the same molecule?
**A.** active; positive

**Q.** What does the source list for CC(=O)c1cc(NC(N)=O)ccc1OCC(O)CNC(C)(C)C (centres undefined)?
**A.** mutagenic call (Test System: AMES SALMONELLA TYPHIMURIUM, Strain/Indicator: TA98, Metabolic Activation: NONE, Method: PREINCUBATION): inactive; negative; mutagenic call (Test System: AMES SALMONELLA TYPHIMURIUM, Strain/Indicator: TA98, Metabolic Activation: RAT, LIVER, S-9, AROCLOR 1254 (10 OR 50 µL/PLATE), Method: PREINCUBATION): inactive; negative; mutagenic call [8]: inactive; negative; mutagenic call (Test System: AMES SALMONELLA TYPHIMURIUM, Strain/Indicator: TA100, Metabolic Activation: RAT, LIVER, S-9, AROCLOR 1254 (10 OR 50 µL/PLATE ), Method: PREINCUBATION): active; positive; mutagenic call [9]: inactive; negative; mutagenic call (Test System: AMES SALMONELLA TYPHIMURIUM, Strain/Indicator: TA1535, Metabolic Activation: RAT, LIVER, S-9, AROCLOR 1254 (10 OR 50 µL/PLATE), Method: PREINCUBATION): active; positive; mutagenic call [5]: inactive; negative; mutagenic call (Test System: AMES SALMONELLA TYPHIMURIUM, Strain/Indicator: TA1537, Metabolic Activation: RAT, LIVER, S-9, AROCLOR 1254 (10 OR 50 µL/PLATE), Method: PREINCUBATION): inactive; negative; mutagenic call [10]: inactive; negative; mutagenic call (Test System: E. COLI, Strain/Indicator: WP2 UVRA, Metabolic Activation: RAT, LIVER, S-9, AROCLOR 1254 (10 OR 50 µL/PLATE), Method: PREINCUBATION): inactive; negative

**Q.** Which mutagenic call (End Point: IN VIVO MICRONUCLEUS, Test System: HEPATOCYTES, Species: RAT, Strain/Sex: SPRAGUE-DAWLEY/FEMALE, Route: INTRAGASTRIC (GAVAGE)) does the source give for C=CC[C@]1(O)CC[C@H]2[C@@H]3CCC4=CCCC[C@@H]4[C@H]3CC[C@@]21C here?
**A.** inactive; negative (increase not significant)

**Q.** Which results are given for COc1c(Cl)c(Cl)c(Cl)c(Cl)c1Cl?
**A.** mutagenic call (Test System: AMES SALMONELLA TYPHIMURIUM, Strain/Indicator: TA98, Metabolic Activation: HAMSTER, LIVER, S-9, AROCLOR 1254 (10%), Method: PREINCUBATION): inactive; negative; mutagenic call (Test System: AMES SALMONELLA TYPHIMURIUM, Strain/Indicator: TA98, Metabolic Activation: MOUSE, LIVER, S-9, AROCLOR 1254, Method: PREINCUBATION): inactive; negative; mutagenic call (Test System: AMES SALMONELLA TYPHIMURIUM, Strain/Indicator: TA98, Metabolic Activation: RAT, LIVER, S-9, AROCLOR 1254 (10%), Method: PREINCUBATION): inactive; negative; mutagenic call (Test System: AMES SALMONELLA TYPHIMURIUM, Strain/Indicator: TA100, Metabolic Activation: HAMSTER, LIVER, S-9, AROCLOR 1254 (10%), Method: PREINCUBATION): inactive; negative; mutagenic call (Test System: AMES SALMONELLA TYPHIMURIUM, Strain/Indicator: TA100, Metabolic Activation: MOUSE, LIVER, S-9, AROCLOR 1254, Method: PREINCUBATION): inactive; negative; mutagenic call [8]: inactive; negative; mutagenic call (Test System: AMES SALMONELLA TYPHIMURIUM, Strain/Indicator: TA100, Metabolic Activation: RAT, LIVER, S-9, AROCLOR 1254 (10%), Method: PREINCUBATION): inactive; negative; mutagenic call (Test System: AMES SALMONELLA TYPHIMURIUM, Strain/Indicator: TA1535, Metabolic Activation: HAMSTER, LIVER, S-9, AROCLOR 1254 (10%), Method: PREINCUBATION): inactive; negative; mutagenic call [9]: inactive; negative; mutagenic call (Test System: AMES SALMONELLA TYPHIMURIUM, Strain/Indicator: TA1535, Metabolic Activation: RAT, LIVER, S-9, AROCLOR 1254 (10%), Method: PREINCUBATION): inactive; negative; mutagenic call (Test System: AMES SALMONELLA TYPHIMURIUM, Strain/Indicator: TA1537, Metabolic Activation: HAMSTER, LIVER, S-9, AROCLOR 1254 (10%), Method: PREINCUBATION): inactive; negative; mutagenic call [5]: active; positive; mutagenic call (Test System: AMES SALMONELLA TYPHIMURIUM, Strain/Indicator: TA1537, Metabolic Activation: RAT, LIVER, S-9, AROCLOR 1254 (10%), Method: PREINCUBATION): inactive; negative; mutagenic call (Test System: E. COLI, Strain/Indicator: WP2, Metabolic Activation: MOUSE, LIVER, S-9, AROCLOR 1254, Method: PREINCUBATION): inactive; negative; mutagenic call (Test System: E. COLI, Strain/Indicator: WP2, Metabolic Activation: NONE, Method: PREINCUBATION): inactive; negative; mutagenic call (Test System: E. COLI, Strain/Indicator: WP2 UVRA, Metabolic Activation: MOUSE, LIVER, S-9, AROCLOR 1254, Method: PREINCUBATION): inactive; negative; mutagenic call [10]: inactive; negative; mutagenic call [6]: inactive; negative; mutagenic call [7]: active; positive
